Laboratory results as given in patent US20140094465A1, “Compounds as S-Nitrosoglutathione Reductase Inhibitors” (N30 PHARMACEUTICALS, INC., priority 2011, published 2014).
Where two headings read alike, the source gives them in different places.

Legend:
[1] = test system: dextran sodium sulfate (DSS)-induced IBD; test: Acute prophylactic model of DSS-induced IBD; assay type: in vivo, mouse
Text: (§1) Acute and chronic models of dextran sodium sulfate (DSS)-induced IBD in mice were used to explore efficacy of GSNORi against this disease. Acute and chronic DSS-induced IBD are widely used and well characterized models that induce pathological changes in the colon similar to those observed in the human disease. In these models and in human disease, epithelial cells within the crypts of the colon are disrupted, leading to dysfunction of the epithelial barrier and the ensuing tissue inflammation, edema, and ulceration. GSNORi therapy may benefit IBD by restoring s-nitrosoglutathione (GSNO) levels, and thus prevent or reverse the epithelial barrier dysfunction. Experimental IBD was induced by administration of DSS in the drinking water of male C57Bl/6 mice (N=8 to 10 mice per group) for 6 consecutive days. GSNORi was dosed orally at doses of 0.1 to 10 mg/kg/day for 10 days starting two days prior to and continuing two days post DSS exposure. […] Levels of circulating cytokines involved in inflammatory pathways were also assessed. The effect of GSNORi was compared to vehicle treated controls. […] Naïve mice (N=5) were also assessed as a normal tissue control.

[2] = target: T1, S-nitrosoglutathione reductase (GSNOR) (Homo sapiens, UniProt P11766); test: GSNOR assay (inhibition of GSNOR activity, NADH absorbance at 340 nm); assay type: biochemical
T1 construct: made in house; host or cells: E. coli
Outline: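 Recombinant GSNOR purified from E. coli, tag removed. Final conditions: 100 mM NaPO4 pH 7.4, 0.240 mM GSNO, 0.300 mM NADH, 0.5 μg/mL enzyme, 1% DMSO; NADH loss followed as 340 nm absorbance change over 3 min at 25 °C. Compounds 100–0.003 μM, triplicate; IC50 by curve analysis.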

[3] = test system: cigarette smoke-induced COPD; test: Acute (4 day) cigarette smoke exposure COPD model; assay type: in vivo, mouse; settings: acute 4 day smoke model
Protocol: The efficacy of GSNOR inhibitors was assessed in a mouse model of chronic obstructive pulmonary disease (COPD) induced by short duration (4 days or 11 days) of exposure to cigarette smoke. Infiltration of inflammatory cells into the bronchoalveolar lavage fluid (BALF) and BALF levels of chemokines involved in inflammation and tissue turnover/repair were measured to assess the influences of GSNOR inhibitors on some of the early events associated with the initiation and progression of COPD.
Efficacy of GSNOR inhibitors against COPD was explored using acute (4 day) and subchronic (11 day) models of cigarette smoke-induced COPD in mice. […] In animal models, changes in lung pathology are only evident after extended (several months) duration of exposure to cigarette smoke, thus making chronic models prohibitive as effective screening tools. More recently, models exploring inflammatory responses after short duration (2 weeks or less) of smoke exposure in mice have been utilized as tools for screening efficacy and mechanisms of action of novel therapeutics against COPD. The key roles of inflammation in the initiation and progression of COPD, make these short duration models relevant for initial tests of efficacy of novel therapeutics.
Female C57Bl/6 mice (N=8 per group) were exposed to cigarette smoke using a whole body exposure chamber. Mice were exposed daily for 4 consecutive days to 4 cycles of smoke from 6 sequential cigarettes (Kentucky 3R4F without filter) with a 30 minute smoke free interval between cycles. GSNOR inhibitors were administered daily via oral dosing at 10 mg/kg/day for 7 days starting 2 days prior to smoke exposure and continuing 1 day post-exposure. The effects of GSNOR inhibitors were assessed by quantitating the numbers of total cells, leukocytes, and leukocytes differentials in the BALF via light microscopy and the levels of BALF chemokines via ELISA at approximately 24 h after the last smoke exposure. The effect of GSNOR inhibitors were compared to vehicle treated controls. The PDE4 inhibitor, roflumilast, was used as the positive control for the study. A group of naïve mice (N=8) was exposed to air and used as a negative control for the study.

[4] = target: T2, GSNOR and NAD+ (Homo sapiens, UniProt P11766); test: X-ray crystallography of inhibitor bound to GSNOR and NAD+, distance measurement; settings: crystal structure bound to GSNOR and NAD+; O atom of hydroxyl to C atom of carbonyl
T2 construct: made in house; host or cells: E. coli
Text: Single crystal x-ray diffraction is a method useful to understanding the 3-dimensional structure of the binding pocket. The solved crystal structures offer significant information about the GSNOR binding pocket and the interactions of the inhibitors within the binding site. The crystal structure of the ternary complex of GSNOR, NAD+, and Compound IV-10 (Table 4, Example 1) (4-(7-hydroxy-4-oxo-2-(trifluoromethyl)-4H-chromen-3-yl)benzoic acid) was solved. The enzyme-ligand complex crystallized as a homodimer with Compound IV-10 binding to each GSNOR monomer. The key pharmacophores identified from the ternary complex of GSNOR inhibitor with GSNOR and NAD+ are the hydroxyl group on the bicyclic ring of Compound IV-10, which hydrogen bonds to histidine 66, cysteine 44, cysteine 173 and threonine 46. This hydroxyl group is also part of the Zn complex to histidine 66, cysteine 44, and cysteine 173 and threonine 46. The carboxylic acid of Compound IV-10 hydrogen bonds to the glutamine 111 and forms a salt bridge with lysine 283. […]
Once the crystal structures were solved, a distance measurement was made. […] For the second crystal structure with Compound V-1 bound to GSNOR and NAD+, the distance between the hydroxyl group and the carboxylic acid found to be 12.34 Å (measured in the same manner as described above). […]

[5] = test system: cigarette smoke-induced COPD; test: Subchronic (11 day) cigarette smoke exposure COPD model; assay type: in vivo, mouse; settings: subchronic 11 day model; roflumilast 5 mg/kg/day
Protocol: Infiltration of inflammatory cells into the bronchoalveolar lavage fluid (BALF) and BALF levels of chemokines involved in inflammation and tissue turnover/repair were measured to assess the influences of GSNOR inhibitors on some of the early events associated with the initiation and progression of COPD. […] In animal models, changes in lung pathology are only evident after extended (several months) duration of exposure to cigarette smoke, thus making chronic models prohibitive as effective screening tools. […] The key roles of inflammation in the initiation and progression of COPD, make these short duration models relevant for initial tests of efficacy of novel therapeutics. Female C57Bl/6 mice (N=10 per group) were exposed to cigarette smoke generated from Marlboro 100 cigarettes without filters. Exposure times were 25 min. on study day 1, 35 min. on study day 2, and 45 min. on study days 3 to 11. GSNOR inhibitors were administered one hour prior to smoke exposure on each day. GSNOR inhibitors were dosed orally at 1 to 10 mg/kg/day for 11 days. […] The effect of GSNOR inhibitors were compared to vehicle treated controls and expressed as percent inhibition of the cigarette smoke induced increases in BALF cell numbers. Roflumilast was used as the positive control for the study and was dosed at 5 mg/kg/day. A group of naïve mice (N=10) was exposed to air and dosed with vehicle as a negative control for the study.

[6] = test system: dextran sodium sulfate (DSS)-induced IBD; test: Chronic treatment model of DSS-induced IBD; assay type: in vivo, mouse; settings: oral 10 mg/kg/day for up to 14 days, treatment regimen
Text: as §1, with “mice (N=10” for “mice (N=8”, “to 12” for “to 10”, “of” for “of 0.1 to”, “for 14” for “for 10”, “starting one day after cessation of” for “starting two days prior to and continuing two days post”

[7] = Mouse pharmacokinetic (PK) study; assay type: in vivo; settings: male, BALB/c, plasma, po, 10 mg/kg, male BALB/c mice, 2 mg/kg IV, 10 mg/kg PO, read-out: oral bioavailability (% F)
Text: The mouse was used to determine the pharmacokinetics of compounds of the invention. This species is widely used to assess the bioavailability of compounds by administering both oral (PO) and intravenous (IV) test articles. Efficacy of the compounds of the invention was compared by assessing plasma exposure in male BALB/c mice either via IV or PO administration at the times of peak activity.
Compounds of the invention were reconstituted in a phosphate buffered saline (PBS)/10% Solutol (HS 15) clear solution resulting in a concentration of 0.2 mg/mL and administered to mice (2 mg/kg) as a single IV dose. Animals were dosed via the lateral tail vein. Blood samples were collected at designated time points (0.083, 0.25, 0.5, 1, 2, 4, 8, 16, 24 hours) by cardiac puncture under isoflurane anesthesia (up to 1 mL blood per animal). The blood was collected into tubes containing Li-Heparin. The blood samples were kept on ice until centrifugation within approximately 30 minutes of collection. The plasma was transferred into labeled polypropylene tubes and frozen at −70° C. until analyzed by LC/MS/MS.
The compounds of the invention were reconstituted in 40% Propylene Glycol/40% Propylene Carbonate/20% of a 5% Sucrose clear solution resulting in a concentration of 2 mg/mL and administered to mice (10 mg/kg) as a single oral dose via gavage. Blood samples were collected at 0.25, 0.5, 1, 2, 4, 8, 12, 16, 20 and 24 hours post dose by cardiac puncture under isoflurane anesthesia. The blood was collected in tubes containing Li-Heparin. The blood samples were kept on ice until centrifugation within approximately 30 minutes of collection. The plasma was transferred into labeled polypropylene tubes and frozen at −70° C. until analyzed by LC/MS/MS.
Plasma samples at each timepoint were analyzed using a LC-MS/MS with a lower limit of quantification (LLOQ) of 1 ng/mL. Plasma was analyzed to determine the amount of the compound of the invention in each sample and regression curves generated for each compounds of the invention in the relevant matrixes.
WinNonlin analysis was used for calculating PK parameters for both the IV and PO administrations:
PK parameters for IV portion—AUClast; AUCINF; T1/2; Cl; Vss; Cmax; MRT
PK parameters for PO portion—AUClast; AUCINF; T1/2; Cmax; Cl, MRT.
In addition to the above PK parameters, bioavailability (% F) was calculated.

[8] = GSNOR inhibitor activity, Tables 1-6, read-out: IC50 range
[9] = oral 1 mg/kg/day for 10 days, prophylactic

T1 sequence (P11766 whole entry): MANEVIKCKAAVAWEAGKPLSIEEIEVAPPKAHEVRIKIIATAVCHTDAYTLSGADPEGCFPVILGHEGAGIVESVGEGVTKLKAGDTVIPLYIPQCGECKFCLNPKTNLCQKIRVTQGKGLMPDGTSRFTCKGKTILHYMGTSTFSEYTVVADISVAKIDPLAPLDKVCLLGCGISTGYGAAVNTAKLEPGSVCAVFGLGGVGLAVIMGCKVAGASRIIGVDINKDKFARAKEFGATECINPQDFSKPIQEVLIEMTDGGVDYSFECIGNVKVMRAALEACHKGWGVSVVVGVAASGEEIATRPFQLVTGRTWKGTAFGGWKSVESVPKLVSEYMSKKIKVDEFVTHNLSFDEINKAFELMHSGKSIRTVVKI
T2 sequence (P11766 whole entry): as above

O=C(O)c1ccc(-c2ccc3cc(O)ccc3n2)cc1 [Compound I-3]
circulating inflammatory cytokines ([1]; oral 0.1, 1, or 10 mg/kg/day for 10 days): restored circulating inflammatory cytokines towards levels observed in untreated naïve mice | effects compared with prednisolone ([1]; prednisolone 3 mg/kg/day oral): comparable to or greater than those observed for prednisolone | IC50 [2, 8]: < 100 nM | effects compared with roflumilast [3]: comparable to or greater than those observed for roflumilast | BALF chemokines ([3]; oral 10 mg/kg/day for 7 days): restored BALF chemokines towards levels observed in naïve mice

O=C(O)c1ccc(Oc2c(C(F)(F)F)oc3cc(O)ccc3c2=O)cc1 [Compound V-1, 4-(7-hydroxy-4-oxo-2-(trifluoromethyl)-4H-chromen-3-yloxy)benzoic acid]
distance between the hydroxyl group and the carboxylic acid [4]: 12.34 Å | IC50 [2]: 100 to 1000 nM

O=C(O)c1ccc(-c2ccc3cc(O)ccc3c2)c(Cl)c1 [III-1]
effects compared with roflumilast [5]: comparable to those of roflumilast | decrease of percent of mice with severe colon injury scores via endoscopy [1, 9]: 17 % of vehicle control | decrease of percent of mice with severe colon injury scores via histopathology [1, 9]: 21 % of vehicle control | IC50 [2, 8]: < 100 nM | decrease of percent of mice with severe colon injury scores via endoscopy [6]: 50 % of vehicle control | decrease of percent of mice with severe colon injury scores via histopathology [6]: 17 % of vehicle control

O=C(O)c1ccc(-c2c(C(F)(F)F)oc3cc(O)ccc3c2=O)cc1 [IV-10, 4-(7-hydroxy-4-oxo-2-(trifluoromethyl)-4H-chromen-3-yl)benzoic acid]
distance between the hydroxyl group and the carboxylic acid [4]: 12.07 Å | IC50 [2, 8]: < 100 nM | bioavailability [7]: > 9%
